# Measurements reported in publication PMC7129073 (Clinical Microbiology and Infection, 2015).
# Read-outs that look alike come from different tables or passages of the source.
# How the values were obtained:
# Escherichia coli O157:H7 = assay: Kirby-Bauer susceptibility; type: cell-based; details: 30 strains, 1990–2003
# [1] = tested on: Salmonella, other 49 serotypes; assay: Disk diffusion, food isolates Spain; type: cell-based; details: n = 115
# Shigella spp. = assay: Disk diffusion, stool isolates Tehran; type: cell-based; details: 96 isolates
# K. oxytoca isolate = assay: MIC of qnr-positive SHV-12 producer; type: cell-based; details: Klebsiella oxytoca
# [2] = tested on: Enterobacter cloacae (ECL); assay: Broth microdilution; type: cell-based
# Escherichia coli (ECO) = assay: Broth microdilution; type: cell-based
# Proteus mirabilis (PMI) = assay: Broth microdilution; type: cell-based
# nontyphoidal Salmonella = assay: Agar dilution, isolates from chickens 1998–2004; type: cell-based, Salmonella spp.
# [3] = tested on: Klebsiella pneumoniae (KPN)
# [4] = tested on: Pseudomonas putida clinical isolates; assay: Agar dilution MIC; type: cell-based
# [5] = tested on: Streptococcus agalactiae strains P0162 and P0425; assay: Microdilution; type: cell-based
# Salmonella enterica = assay: VITEK, NCCLS microdilution and disc diffusion of quinolones; type: cell-based
# Acinetobacter = assay: Disk diffusion; type: cell-based; details: 37 isolates selected as resistant to beta-lactams
# Salmonella spp. = assay: Agar dilution susceptibility, gastroenteritis isolates Cuba; type: cell-based; details: 34 strains, 2002
# [6] = tested on: Salmonella serotype Typhimurium; assay: Disk diffusion, food isolates Spain; type: cell-based; details: n = 53
# S. pneumoniae (SPN) = assay: SENTRY Brazil, NCCLS broth microdilution; type: cell-based, Streptococcus pneumoniae
# H. influenzae (HI) = assay: SENTRY Brazil, NCCLS broth microdilution; type: cell-based, Haemophilus influenzae
# enterococci [7] = assay: Disk diffusion and E-test, faecal isolates of cancer patients; type: cell-based, Enterococcus; details: 38 strains; gentamycin: high level
# N.gonorrhoeae = assay: microbe, parasite or virus in culture; type: cell-based; details: Neisseria gonorrhoeae
# [8] = tested on: viridans group streptococci (VgS) and Streptococcus bovis; assay: Broth microdilution and disk diffusion; type: cell-based; details: nine species
# Streptococcus pneumoniae [9] = assay: BSAC agar dilution, lower respiratory isolates UK and Ireland; type: cell-based
# S. pyogenes = assay: Broth microdilution; type: cell-based, Streptococcus pyogenes; details: 212 isolates
# enterococci [10] = assay: Disk diffusion, urine isolates of BPH patients; details: strains isolated post-operatively
# Streptococcus pneumoniae [11] = assay: Susceptibility testing; type: cell-based; details: 99 isolates tested
# Haemophilus influenzae = assay: Susceptibility testing; type: cell-based; details: conjunctival isolates 2000–2004
# Staphylococcus aureus = assay: Susceptibility testing; type: cell-based; details: conjunctival isolates 2000–2004
# K. pneumoniae = assay: MIC; type: cell-based, Klebsiella pneumoniae; details: BSAC
# [12] = tested on: Salmonella serotype Enteritidis; assay: Disk diffusion, food isolates Spain; type: cell-based; details: n = 96
# Nocardia spp. = assay: E-test on Mueller Hinton agar, 81 clinical isolates; type: cell-based
# [13] = tested on: glycopeptide intermediate Staphylococcus species (GISS); assay: VITEK II, screening plate and E test, blood isolates; type: cell-based, coagulase-negative Staphylococci; details: 73 GISS strains
# [14] = tested on: inducible Enterobacteriaceae; assay: SMART 2003, intraabdominal isolates; type: cell-based
# Enterobacteriaceae = assay: SMART 2003 Europe, microdilution; type: cell-based; details: 1948 isolates
# E. coli [15] = assay: SMART 2003 Europe, microdilution; type: cell-based, Escherichia coli; details: 1106 isolates
# Klebsiella = assay: SMART 2003 Europe, microdilution; type: cell-based, Klebsiella spp.; details: 341 isolates
# E. coli [16] = assay: Resistance of UTI isolates of renal transplant recipients; type: cell-based, Escherichia coli; details: 75 isolates
compound,measurement,setting,value
CCn1cc(C(=O)O)c(=O)c2ccc(C)nc21 [nalidixic acid],resistant strains,Escherichia coli O157:H7,10%
same,resistance rate (NCCLS M100-S13),[1],14%
same,sensitive,Shigella spp.,96%
same,MIC,K. oxytoca isolate,16 µg/mL
same,resistance,[2]; 1984,2.0%
same,resistance,[2]; 2001,17.5%
same,resistance,Escherichia coli (ECO); 1984,1.6%
same,resistance,Escherichia coli (ECO); 2001,19.2%
same,resistance,Proteus mirabilis (PMI); 1984,2.6%
same,resistance,Proteus mirabilis (PMI); 2001,15.9%
same,resistance,nontyphoidal Salmonella; Germany (carcass meat),9%
same,resistance,[3]; 1984,12.2%
same,resistance,[3]; 2001,21.6%
CCn1cc(C(=O)O)c(=O)c2cc(F)c(N3CCNCC3)cc21 [norfloxacin],MIC,[4],> 128 µg/mL
same,sensitive,Shigella spp.,100%
same,MIC,K. oxytoca isolate,< 0.1 µg/mL
same,MIC,"[5]; strain P0162 (ParC Ser79Phe, GyrA Glu85Ala)",> 256 µg/mL
same,MIC,"[5]; strain P0425 (ParC Ser79Phe, GyrA Glu85Lys)",> 256 µg/mL
same,MIC,"Salmonella enterica; read-out: NCCLS MIC, 37 NAL-R strains",0.54 µg/mL
same,MIC,"Salmonella enterica; read-out: NCCLS MIC, NAL-S strains",≤ 0.06 µg/mL
same,MIC,"Salmonella enterica; read-out: VITEK MIC, 37 strains",2 µg/mL
same,MIC,"Salmonella enterica; read-out: VITEK MIC, five strains",< 0.5 µg/mL
same,resistant isolates,Acinetobacter,100.0%
CN(C)[C@@H]1C(O)=C(C(N)=O)C(=O)[C@@]2(O)C(O)=C3C(=O)c4c(O)cccc4[C@@](C)(O)[C@H]3C[C@@H]12 [tetracycline],resistance,Salmonella spp.,53%
same,resistance rate (NCCLS M100-S13),[6],72%
same,% S,S. pneumoniae (SPN); 1998,72%
same,% S,S. pneumoniae (SPN); 1999,75%
same,% S,S. pneumoniae (SPN); 2000,82%
same,% S,S. pneumoniae (SPN); 2001,78%
same,% S,S. pneumoniae (SPN); 2002,86%
same,% S,S. pneumoniae (SPN); 2003,85%
same,% S,H. influenzae (HI); 1998,96%
same,% S,H. influenzae (HI); 1999,84%
same,% S,H. influenzae (HI); 2000,95%
same,% S,H. influenzae (HI); 2001,95%
same,% S,H. influenzae (HI); 2002,98%
same,% S,H. influenzae (HI); 2003,96%
same,resistant strains,enterococci [7],55%
same,MIC,N.gonorrhoeae; strain 76mu6,8 µg/mL
same,MIC,N.gonorrhoeae; strain 76mu10,8 µg/mL
same,MIC,N.gonorrhoeae; strain 92mu6,2 µg/mL
same,MIC,N.gonorrhoeae; strain 92mu13,2 µg/mL
same,resistant isolates,Acinetobacter,100.0%
same,"% S, range between species",[8],35.0 – 93.9%
same,"resistance (PEN-NS >0.06, TET-R >1, ERY-R >0.5, CIP-R >2 mg/L)","Streptococcus pneumoniae [9]; Ireland 1999–2000, N 66",24.2%
same,resistance (same cut-offs),"Streptococcus pneumoniae [9]; Ireland 2000–2001, N 59",25.4%
same,resistance (same cut-offs),"Streptococcus pneumoniae [9]; Ireland 2001–2002, N 68",16.2%
same,resistance (same cut-offs),"Streptococcus pneumoniae [9]; Ireland 2002–2003, N 89",10.1%
same,resistance (same cut-offs),"Streptococcus pneumoniae [9]; Ireland 2003–2004, N 76",7.9%
same,resistance (same cut-offs),"Streptococcus pneumoniae [9]; UK 1999–2000, N 595",7.2%
same,resistance (same cut-offs),"Streptococcus pneumoniae [9]; UK 2000–2001, N 608",6.3%
same,resistance (same cut-offs),"Streptococcus pneumoniae [9]; UK 2001–2002, N 631",4.8%
same,resistance (same cut-offs),"Streptococcus pneumoniae [9]; UK 2002–2003, N 683",5.7%
same,resistance (same cut-offs),"Streptococcus pneumoniae [9]; UK 2003–2004, N 709",6.2%
same,nonsusceptible,S. pyogenes,25.9%
same,resistance,"nontyphoidal Salmonella; Belgian collection (caecal samples; Belgium, France, Netherlands)",33%
same,resistance,enterococci [10],77.8%
NC[C@H]1O[C@H](O[C@H]2[C@H](O)[C@@H](O[C@H]3O[C@H](CO)[C@@H](O)[C@H](N)[C@H]3O)[C@H](N)C[C@@H]2N)[C@H](N)C[C@@H]1O [tobramycin],resistant isolates,Streptococcus pneumoniae [11],49.5%
same,resistant isolates,Haemophilus influenzae,2.6%
same,resistant isolates,Staphylococcus aureus,14.6%
same,susceptibility category,K. pneumoniae,resistant
same,resistance rate (NCCLS M100-S13),[12],1%
same,resistance rate (NCCLS M100-S13),[6],4%
same,resistance rate (NCCLS M100-S13),[1],0%
same,MIC50,Nocardia spp.; Nocardia,4 µg/mL
same,MIC90,Nocardia spp.; Nocardia,12 µg/mL
same,MIC range,Nocardia spp.; read after 48 and 72 h,<0.016 to 24 mg/L
same,resistance rate,[13],"91,8%"
same,resistant isolates,Acinetobacter,10.8%
same,% susceptible,[14]; A/P (N = 200),77%
same,% susceptible,[14]; EU (N = 354),93%
same,% susceptible,[14]; LA (N=113),79%
same,% susceptible,[14]; NA (N = 163),93%
same,per cent susceptible,Enterobacteriaceae,93%
same,per cent susceptible,E. coli [15],92%
same,per cent susceptible,Klebsiella,91%
same,susceptible,"Escherichia coli (ECO); NAL-resistant isolates, 2001",71.4%
same,susceptible,"Escherichia coli (ECO); NAL-susceptible isolates, 2001",95.0%
Ampicillin/ Sulbactam [A/S],rate of resistance,E. coli [16],34%
same,resistant isolates,Acinetobacter,10.8%
